Here are results for 30 compounds from patent US11939314B2, “Quinolin-2-one derivatives” (MERCK PATENT GMBH, priority 2016, dated 2024).

The target of one assay is T1, c-Kit(V654A) (Homo sapiens, UniProt P10721, V654A).
T1 construct: amino acids 544-end containing the V654A mutation; GST (N)
As to the kind of experiment: c-Kit(V654A) assay. The assay is classed as biochemical. Particulars: recombinant human c-Kit aa 544-end, 200 μM ATP, 1.4E-06 means 1.4×10^−6, read-out: Inhibition (IC50) of c-KIT (V654A). As to the method: (§1) c-Kit(V654A) (N-terminal GST-tagged, recombinant human c-Kit, amino acids 544-end containing the V654A mutation) is incubated with 8 mM MOPS pH 7.0, 0.2 mM EDTA, 250 μM GGMEDIYEFMGGKKK, 10 mM MgAcetate and [gamma-33P-ATP] (specific activity approx. 500 cpm/pmol, concentration 200 μM). The reaction is initiated by the addition of the MgATP mix. After incubation for 40 minutes at room temperature, the reaction is stopped by the addition of 3% phosphoric acid solution. 10 μL of the reaction is then spotted onto a P30 filtermat and washed three times for 5 minutes in 75 mM phosphoric acid and once in methanol prior to drying and scintillation counting.

The next assay addresses T2, PDGFRalpha(V561D) (Homo sapiens, UniProt P16234, V561D).
T2 construct: recombinant human PDGFRalpha, amino acids 550end containing the V561 D mutation; 6His (N)
Put plainly: PDGFRalpha(V561D) assay. The class given is biochemical. The settings on record: recombinant human PDGFRalpha aa 550-end, 200 μM ATP, 1.4E-06 means 1.4×10^−6, read-out: Inhibition (IC50) of PDGFRα (V561D). The protocol: as §1, with “PDGFRalpha(V561D)” for “c-Kit(V654A)”, “6His-tagged,” for “GST-tagged,”, “PDGFRalpha,” for “c-Kit,”, “550end” for “544-end”, “V561 D” for “V654A”

Molecules are shown by their SMILES.

T1 sequence (P10721 544-976 V654A): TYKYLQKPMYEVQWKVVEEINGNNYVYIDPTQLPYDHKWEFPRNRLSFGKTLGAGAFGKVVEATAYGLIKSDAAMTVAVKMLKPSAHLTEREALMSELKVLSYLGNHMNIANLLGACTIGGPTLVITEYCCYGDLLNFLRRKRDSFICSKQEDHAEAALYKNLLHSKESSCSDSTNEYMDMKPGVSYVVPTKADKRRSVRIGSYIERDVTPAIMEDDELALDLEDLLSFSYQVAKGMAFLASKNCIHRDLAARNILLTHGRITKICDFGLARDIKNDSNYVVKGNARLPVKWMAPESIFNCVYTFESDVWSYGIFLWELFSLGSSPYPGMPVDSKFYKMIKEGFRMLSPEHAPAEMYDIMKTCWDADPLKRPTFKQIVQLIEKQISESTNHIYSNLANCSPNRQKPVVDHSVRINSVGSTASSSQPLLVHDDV
T2 sequence (P16234 550-1089 V561D): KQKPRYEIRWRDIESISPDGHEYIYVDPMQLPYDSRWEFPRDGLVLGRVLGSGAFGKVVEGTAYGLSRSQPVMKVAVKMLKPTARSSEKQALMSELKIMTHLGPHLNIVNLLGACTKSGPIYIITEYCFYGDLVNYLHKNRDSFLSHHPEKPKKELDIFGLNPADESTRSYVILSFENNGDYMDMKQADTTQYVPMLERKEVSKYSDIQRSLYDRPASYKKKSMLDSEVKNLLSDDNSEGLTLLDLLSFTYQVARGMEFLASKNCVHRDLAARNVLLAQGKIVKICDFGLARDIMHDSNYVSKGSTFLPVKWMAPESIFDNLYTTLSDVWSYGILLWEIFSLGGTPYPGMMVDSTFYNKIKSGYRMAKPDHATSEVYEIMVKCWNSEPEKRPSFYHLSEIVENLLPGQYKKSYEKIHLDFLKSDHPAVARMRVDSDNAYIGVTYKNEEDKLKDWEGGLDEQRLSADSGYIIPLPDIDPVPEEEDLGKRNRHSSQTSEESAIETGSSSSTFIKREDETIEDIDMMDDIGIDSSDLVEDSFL

The IC50 is the concentration at which inhibition is half-maximal. As for `COCC1CCCN1C(=O)c1ccc(-n2cc(-c3cc4cc(F)ccc4[nH]c3=O)nn2)cc1` (stereo in doubt) [A198, 6-fluoro-3-{1-[4-((R)-2-methoxymethyl-pyrrolidine-1-carbonyl)-phenyl]-1H-[1,2,3]triazol-4-yl}-1H-quinolin-2-one], the results for the IC50 on c-Kit(V654A) and on PDGFRalpha(V561D) were 30 nM and 200 nM, respectively.
The matching figures for `NC1CCN(C(=O)c2ccc(-n3cc(-c4cc5cc(F)ccc5[nH]c4=O)nn3)cc2)C1` (stereo in doubt) [A306, 3-{1-[4-((S)-3-amino-pyrrolidine-1-carbonyl)-phenyl]-1H-[1,2,3]triazol-4-yl}-6-fluoro-1H-quinolin-2-one]: 45 nM and 240 nM.
For the compound `CO[C@H]1CC[C@@H](Oc2ccc(-n3cc(-c4cc5cc(F)ccc5[nH]c4=O)nn3)cc2)C1` (stereo in doubt) [A355, 6-Fluoro-3-{1-[4-((trans)-3-methoxy-cyclopentyloxy)-phenyl]-1H-[1,2,3]triazol-4-yl}-1H-quinolin-2-one], the figures for the IC50 at c-Kit(V654A) and on PDGFRalpha(V561D) were 89 nM and 1600 nM, respectively.
The matching figures for `CO[C@@H]1CC[C@H](Oc2ccc(-n3cc(-c4cc5cc(Cl)ccc5[nH]c4=O)nn3)cc2)C1` (stereo in doubt) [A356, 6-chloro-3-{1-[4-((1S,3R)-3-methoxy-cyclopentyloxy)-phenyl]-1H-[1,2,3]triazol-4-yl}-1H-quinolin-2-one]: 96 nM and 150 nM.
For the compound `O=C(c1ccc(-n2cc(-c3cc4cc(F)ccc4[nH]c3=O)nn2)cc1)N1CCOCC1` [A1, 6-fluoro-3-{1-[4-(morpholine-4-carbonyl)-phenyl]-1H-[1,2,3]triazol-4-yl}-1H-quinolin-2-one], the figures for the IC50 at c-Kit(V654A) and on PDGFRalpha(V561D) were 6 nM and 2 nM, respectively.
Take `O=C(c1ccc(-n2cc(-c3cc4ccccc4[nH]c3=O)nn2)cc1)N1CCOCC1` [A2, 3-{1-[4-(morpholine-4-carbonyl)-phenyl]-1H-[1,2,3]triazol-4-yl}-1H-quinolin-2-one]: the IC50 at c-Kit(V654A) was 51 nM; on PDGFRalpha(V561D) it was 12 nM.
Turning to `CN(C)C(=O)c1ccc(-n2cc(-c3cc4cccnc4[nH]c3=O)nn2)cc1` [A3, N,N-dimethyl-4-[4-(2-oxo-1,2-dihydro-[1,8]naphthyridin-3-yl)-[1,2,3]triazol-1-yl]-benzamide], the IC50 was determined as 53 nM at c-Kit(V654A) and 16 nM on PDGFRalpha(V561D).
The matching figures for `CN(C)C(=O)c1ccc(-n2cc(-c3cc4ccccc4[nH]c3=O)nn2)cc1` [A4, N,N-dimethyl-4-[4-(2-oxo-1,2-dihydro-quinolin-3-yl)-[1,2,3]triazol-1-yl]-benzamide]: 34 nM and 19 nM.
As to `O=C(NCCO)c1ccc(-n2cc(-c3cc4cccnc4[nH]c3=O)nn2)cc1` [A8, N-(2-hydroxy-ethyl)-4-[4-(2-oxo-1,2-dihydro-[1,8]naphthyridin-3-yl)-[1,2,3]triazol-1-yl]-benzamide], the values for the IC50 at c-Kit(V654A) and at PDGFRalpha(V561D) were 170 nM and 14 nM, respectively.
The corresponding values for `COCCNC(=O)c1ccc(-n2cc(-c3cc4cccnc4[nH]c3=O)nn2)cc1` [A9, N-(2-methoxy-ethyl)-4-[4-(2-oxo-1,2-dihydro-[1,8]naphthyridin-3-yl)-[1,2,3]triazol-1-yl]-benzamide] are 760 nM and 230 nM.
The matching figures for `COc1ccc(-n2cc(-c3cc4ccccc4[nH]c3=O)nn2)cc1` [A10, 3-[1-(4-methoxy-phenyl)-1H-[1,2,3]triazol-4-yl]-1H-quinolin-2-one]: 82 nM and 32 nM.
In the case of `CN(C)C(=O)c1ccc(-n2cc(-c3cc4cc(Cl)cnc4[nH]c3=O)nn2)cc1` [A11, 4-[4-(6-chloro-2-oxo-1,2-dihydro-[1,8]naphthyridin-3-yl)-[1,2,3]triazol-1-yl]-N,N-dimethyl-benzamide], the results for the concentration for half-maximal inhibition (IC50) at c-Kit(V654A) and on PDGFRalpha(V561D) were 220 nM and 26 nM, respectively.
Take `O=c1[nH]c2ccccc2cc1-c1cn(-c2ccc(F)cc2)nn1` [A12, 3-[1-(4-fluoro-phenyl)-1H-[1,2,3]triazol-4-yl]-1H-quinolin-2-one]: the results for the IC50 at c-Kit(V654A) and at PDGFRalpha(V561D) were 69 nM and 63 nM, respectively.
On to `O=c1[nH]c2ccccc2cc1-c1cn(-c2ccccc2F)nn1` [A13, 3-[1-(2-fluoro-phenyl)-1H-[1,2,3]triazol-4-yl]-1H-quinolin-2-one], for which the half-inhibitory concentration (IC50) at PDGFRalpha(V561D) came to 500 nM.
Consider `O=c1[nH]c2ccccc2cc1-c1cn(-c2ccc(OCCN3CCCC3)cc2)nn1` [A14, 3-{1-[4-(2-pyrrolidin-1-yl-ethoxy)-phenyl]-1H-[1,2,3]triazol-4-yl}-1H-quinolin-2-one], for which the IC50 at c-Kit(V654A) was determined as 23 nM; at PDGFRalpha(V561D), 20 nM.
The corresponding values for `CN1CCC(CNC(=O)c2ccc(-n3cc(-c4cc5ccccc5[nH]c4=O)nn3)cc2)CC1` [A15, N-(1-methyl-piperidin-4-ylmethyl)-4-[4-(2-oxo-1,2-dihydro-quinolin-3-yl)-[1,2,3]triazol-1-yl]-benzamide] are 49 nM and 47 nM.
With `COc1cnc2[nH]c(=O)c(-c3cn(-c4ccc(C(=O)N(C)C)cc4)nn3)cc2c1` [A16, 4-[4-(6-methoxy-2-oxo-1,2-dihydro-[1,8]naphthyridin-3-yl)-[1,2,3]triazol-1-yl]-N,N-dimethyl-benzamide], at PDGFRalpha(V561D), the IC50 amounted to 33 nM.
As to `COC(=O)c1cc(-n2cc(-c3cc4ccccc4[nH]c3=O)nn2)ccn1` [A17, 4-[4-(2-oxo-1,2-dihydro-quinolin-3-yl)-[1,2,3]triazol-1-yl]-pyridine-2-carboxylic acid methyl ester], the IC50 at c-Kit(V654A) worked out at 290 nM; on PDGFRalpha(V561D), 67 nM.
The matching figures for `CN(C)C(=O)c1ccc(-n2cc(-c3cc4cc(F)ccc4[nH]c3=O)nn2)cc1` [A18, 4-[4-(6-fluoro-2-oxo-1,2-dihydro-quinolin-3-yl)-[1,2,3]triazol-1-yl]-N,N-dimethyl-benzamide]: 15 nM and 5 nM.
With `O=C(NCCO)c1ccc(-n2cc(-c3cc4ccccc4[nH]c3=O)nn2)cc1` [A19, N-(2-hydroxy-ethyl)-4-[4-(2-oxo-1,2-dihydro-quinolin-3-yl)-[1,2,3]triazol-1-yl]-benzamide], the IC50 on c-Kit(V654A) was found to be 38 nM; at PDGFRalpha(V561D), 14 nM.
As for `O=C(NCCN1CCOCC1)c1ccc(-n2cc(-c3cc4ccccc4[nH]c3=O)nn2)cc1` [A21, N-(2-morpholin-4-yl-ethyl)-4-[4-(2-oxo-1,2-dihydro-quinolin-3-yl)-[1,2,3]triazol-1-yl]-benzamide], the IC50 at c-Kit(V654A) was determined as 79 nM; on PDGFRalpha(V561D), 32 nM.
Take `CN1CCC(CNC(=O)c2ccc(-n3cc(-c4cc5cc(F)ccc5[nH]c4=O)nn3)cc2)CC1` [A22, 4-[4-(6-fluoro-2-oxo-1,2-dihydro-quinolin-3-yl)-[1,2,3]triazol-1-yl]-N-(1-methyl-piperidin-4-ylmethyl)-benzamide]: the IC50 on c-Kit(V654A) was 27 nM; on PDGFRalpha(V561D), 6 nM.
Turning to `COC(=O)c1cccc(-n2cc(-c3cc4ccccc4[nH]c3=O)nn2)c1` [A23, 3-[4-(2-oxo-1,2-dihydro-quinolin-3-yl)-[1,2,3]triazol-1-yl]-benzoic acid methyl ester], at PDGFRalpha(V561D), the IC50 came out at 250 nM.
Turning to `COc1cccc(-n2cc(-c3cc4ccccc4[nH]c3=O)nn2)c1` [A24, 3-[1-(3-methoxy-phenyl)-1H-[1,2,3]triazol-4-yl]-1H-quinolin-2-one], the IC50 on c-Kit(V654A) turned out to be 110 nM; on PDGFRalpha(V561D), 26 nM.
As for `O=C1COCCN1c1ccc(-n2cc(-c3cc4ccccc4[nH]c3=O)nn2)cc1` [A25, 3-{1-[4-(3-oxo-morpholin-4-yl)-phenyl]-1H-[1,2,3]triazol-4-yl}-1H-quinolin-2-one], the IC50 on c-Kit(V654A) came out at 15 nM; on PDGFRalpha(V561D) it was 3 nM.
For the compound `O=c1[nH]c2ccccc2cc1-c1cn(-c2ccc(OCCN3CCOCC3)cc2)nn1` [A26, 3-{1-[4-(2-morpholin-4-yl-ethoxy)-phenyl]-1H-[1,2,3]triazol-4-yl}-1H-quinolin-2-one], the results for the IC50 at c-Kit(V654A) and on PDGFRalpha(V561D) were 15 nM and 10 nM, respectively.
For `O=c1[nH]c2ccccc2cc1-c1cn(-c2ccccc2)nn1` [A27, 3-(1-phenyl-1H-[1,2,3]triazol-4-yl)-1H-quinolin-2-one], the IC50 on c-Kit(V654A) was found to be 50 nM; on PDGFRalpha(V561D) it was 32 nM.
As for `O=C(c1ccc(-n2cc(-c3cc4ccccc4[nH]c3=O)cn2)cc1)N1CCNCC1` [A73, 3-{1-[4-(piperazine-1-carbonyl)-phenyl]-1H-pyrazol-4-yl}-1H-quinolin-2-one], the IC50 on PDGFRalpha(V561D) was 440 nM.
Consider `CN1CCC(Oc2ccc(-n3cc(-c4cc5cc(F)ccc5[nH]c4=O)nn3)cc2)CC1` [A375, 6-fluoro-3-{1-[4-(1-methyl-piperidin-4-yloxy)-phenyl]-1H-[1,2,3]triazol-4-yl}-1H-quinolin-2-one], for which the IC50 on c-Kit(V654A) came to 9.5 nM.
Regarding `CN1CCC(Oc2ccc(-n3cc(-c4cc5cc(Cl)ccc5[nH]c4=O)nn3)cc2)CC1` [A376, 6-chloro-3-{1-[4-(1-methyl-piperidin-4-yloxy)-phenyl]-1H-[1,2,3]triazol-4-yl}-1H-quinolin-2-one], the IC50 at c-Kit(V654A) was found to be 4.9 nM.
